23 compounds from patent US8796256B2 (Janssen Pharmaceutica NV, priority 2010, dated 2014) can be followed below.

In the assay the target is T1, ERR1 (also known as ERR-α or ERR-1) (Homo sapiens, UniProt P11474).
T1 sequence (P11474 193-421 limits assumed): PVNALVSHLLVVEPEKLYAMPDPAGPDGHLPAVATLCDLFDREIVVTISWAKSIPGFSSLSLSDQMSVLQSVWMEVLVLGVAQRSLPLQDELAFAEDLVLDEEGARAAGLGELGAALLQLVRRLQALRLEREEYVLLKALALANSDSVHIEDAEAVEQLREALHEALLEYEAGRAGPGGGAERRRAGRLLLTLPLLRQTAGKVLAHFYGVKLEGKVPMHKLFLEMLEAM
Nature of the assay: TR-FRET assay (disruption of co-activator peptide binding to ERR1 LBD). It is filed as biochemical. As to conditions: 6 nM 6His-ERR1LBD, 6 nM GST-SRC-2 peptide; average of 3 independent experiments. The procedure: Time-Resolved Fluorescence Resonance Energy Transfer (TR-FRET) experiments were performed to examine the functional response of ERR1 (also known as ERR-α or ERR-1) ligands. The TR-FRET assay described herein relied on the conformation of ERR1 for binding to a co-activator peptide: when a test compound binds to ERR1 and alters its conformation, it can disrupt the binding of the co-activator peptide. The components of this homogeneous secondary assay included: the ^6His-tagged-ERR1LBD, a GST-labeled-hSRC2 co-activator polypeptide and a fluorescent donor/acceptor pair from CIS bio international htrf/bioassays (Bedford, Mass.) using both an α-GST Europium (Eu) Cryptate label and an α^6His-XL665 (allophycocyanin) fluorophore.
For TR-FRET measurements, the reaction was buffered in 25 mM Tris pH 8, 2.5 mM Hepes, 20 mM KCl, 1 mM DTT, and 0.05 mg/mL BSA (delipidated). The final concentrations of reagents were 6 nM of ERR1LBD, 6 nM GST-SRC-2 peptide, 30 nM Eu cryptate, and 7.5 nM a^6His-XL665. Reactions were allowed to reach equilibrium at 25° C. for 4-18 h before collecting data on the Analyst from LJL Biosystems (Molecular Devices Sunnyvale, Calif.). […] Dose response curves were fitted using a hyperbolic equation and the data reported is the average of 3 independent experiments.
As for `O=C1S/C(=C\c2ccc3c(cnn3Cc3ccc(Cl)cc3C(F)(F)F)c2)C(=O)N1C[C@@H]1CN2CCOC[C@H]2CO1` [Compound 205, (5Z)-5-({1-[4-Chloro-2-(trifluoromethyl)benzyl]-1H-indazol-5-yl}methylidene)-3-[(3S,9aS)-hexahydro-1H-[1,4]oxazino[3,4-c] [1,4]oxazin-3-ylmethyl]-1,3-thiazolidine-2,4-dione], the EC50 turned out to be 22 nM.

`CN1CCCC(N2C(=O)S/C(=C\c3ccc4c(cnn4Cc4ccc(Cl)cc4C(F)(F)F)c3)C2=O)C1` (centres unmarked) [Compound 136, (5Z)-5-({1-[4-Chloro-2-(trifluoromethyl)benzyl]-1H-indazol-5-yl}methylidene)-3-(1-methylpiperidin-3-yl)-1,3-thiazolidine-2,4-dione] had an EC50 of 35 nM.

`COc1ccc(Cn2ncc3cc(/C=C4\SC(=O)N(CCN5CCC(O)CC5)C4=O)ccc32)c(C(F)(F)F)c1` [Compound 15, (5Z)-3-[2-(4-Hydroxypiperidin-1-yl)ethyl]-5-({1-[4-methoxy-2-(trifluoromethyl)benzyl]-1H-indazol-5-yl}methylidene)-1,3-thiazolidine-2,4-dione] registered an EC50 of 62 nM. This EC50 is about 1.8-fold higher than that of the compound before.

In turn, `O=C(O)c1cccc(CN2C(=O)S/C(=C\c3ccc4c(cnn4Cc4ccc(Cl)cc4C(F)(F)F)c3)C2=O)c1` [Compound 378, 3-{[(5Z)-5-({1-[4-Chloro-2-(trifluoromethyl)benzyl]-1H-indazol-5-yl}methylidene)-2,4-dioxo-1,3-thiazolidin-3-yl]methyl}benzoic acid] came in with an EC50 of 66 nM. The EC50 values of the last two compounds are within 1.5-fold of each other.

As to `O=C1S/C(=C\c2ccc3c(cnn3Cc3ccc(Cl)cc3C(F)(F)F)c2)C(=O)N1C[C@@H]1CCCNC1` [Compound 95, (5Z)-5-({1-[4-Chloro-2-(trifluoromethyl)benzyl]-1H-indazol-5-yl}methylidene)-3-[(3R)-piperidin-3-ylmethyl]-1,3-thiazolidine-2,4-dione], the EC50 was 57 nM.

The compound `C[C@@H](CN1C(=O)S/C(=C\c2ccc3c(cnn3Cc3ccc(Cl)cc3C(F)(F)F)c2)C1=O)NS(C)(=O)=O` [Compound 157, N-{(1S)-2-[(5Z)-5-({1-[4-Chloro-2-(trifluoromethyl)benzyl]-1H-indazol-5-yl}methylidene)-2,4-dioxo-1,3-thiazolidin-3-yl]-1-methylethyl} methanesulfonamide] came in with an EC50 of 23 nM.

As for `O=C1S/C(=C\c2ccc3c(cnn3Cc3ccc(Cl)cc3C(F)(F)F)c2)C(=O)N1C[C@@H]1C[C@@H](O)CN1` [Compound 182, (5Z)-5-({1-[4-Chloro-2-(trifluoromethyl)benzyl]-1H-indazol-5-yl}methylidene)-3-{[(2S,4R)-4-hydroxypyrrolidin-2-yl]methyl}-1,3-thiazolidine-2,4-dione], the EC50 amounted to 96 nM.

In the case of `NC1(CN2C(=O)S/C(=C\c3ccc4c(cnn4Cc4ccc(Cl)cc4C(F)(F)F)c3)C2=O)CC1` [Compound 194, (5Z)-3-[(1-Aminocyclopropyl)methyl]-5-({1-[4-chloro-2-(trifluoromethyl)benzyl]-1H-indazol-5-yl}methylidene)-1,3-thiazolidine-2,4-dione], the EC50 was found to be 34 nM.

For the compound `O=C(CN1C(=O)S/C(=C\c2ccc3c(cnn3Cc3ccc(Cl)cc3C(F)(F)F)c2)C1=O)N1CCN[C@@H](CO)C1` [Compound 57, (5Z)-5-({1-[4-Chloro-2-(trifluoromethyl)benzyl]-1H-indazol-5-yl}methylidene)-3-{2-[(3R)-3-(hydroxymethyl)piperazin-1-yl]-2-oxoethyl}-1,3-thiazolidine-2,4-dione], the response was half-maximal at 59 nM (EC50).

As for `CS(=O)(=O)NCCN1C(=O)S/C(=C\c2ccc3c(cnn3Cc3ccc(Cl)cc3C(F)(F)F)c2)C1=O` [Compound 393, N-{2-[(5Z)-5-({1-[4-Chloro-2-(trifluoromethyl)benzyl]-1H-indazol-5-yl}methylidene)-2,4-dioxo-1,3-thiazolidin-3-yl]ethyl}methanesulfonamide], the response was half-maximal at 32 nM (EC50).

For `O=C1S/C(=C\c2ccc3c(cnn3Cc3ccc(Cl)cc3C(F)(F)F)c2)C(=O)N1C1CCNCC1(F)F` (centres unmarked) [Compound 345, (5Z)-5-({1-[4-Chloro-2-(trifluoromethyl)benzyl]-1H-indazol-5-yl}methylidene)-3-(3,3-difluoropiperidin-4-yl)-1,3-thiazolidine-2,4-dione], the EC50 turned out to be 18 nM.

In turn, `O=C(O)[C@@H]1CCC[C@H]1N1C(=O)S/C(=C\c2ccc3c(cnn3Cc3ccc(Cl)cc3C(F)(F)F)c2)C1=O` [Compound 142, (1R,2R)-2-[(5Z)-5-({1-[4-Chloro-2-(trifluoromethyl)benzyl]-1H-indazol-5-yl}methylidene)-2,4-dioxo-1,3-thiazolidin-3-yl]cyclopentanecarboxylic acid] returned a half-maximal effective concentration (EC50) of 38 nM.

Compound `CN(CCN1C(=O)S/C(=C\c2ccc3c(cnn3Cc3ccc(Cl)cc3C(F)(F)F)c2)C1=O)S(=O)(=O)N1CCCC1` [Compound 396, N-{2-[(5Z)-5-({1-[4-Chloro-2-(trifluoromethyl)benzyl]-1H-indazol-5-yl}methylidene)-2,4-dioxo-1,3-thiazolidin-3-yl]ethyl}-N-methylpyrrolidine-1-sulfonamide] gave an EC50 of 112 nM. This EC50 lies about 2.9-fold higher than the previous one.

For `O=C1S/C(=C\c2ccc3c(cnn3Cc3ccc(Cl)cc3C(F)(F)F)c2)C(=O)N1N1CCOCC1` [Compound 359, (5Z)-5-({1-[4-Chloro-2-(trifluoromethyl)benzyl]-1H-indazol-5-yl}methylidene)-3-morpholin-4-yl-1,3-thiazolidine-2,4-dione], it took 26 nM to reach a half-maximal effect (EC50).

As for `O=C(NC1(CN2C(=O)S/C(=C\c3ccc4c(cnn4Cc4ccc(C(F)(F)F)cc4C(F)(F)F)c3)C2=O)CCOCC1)C1CC1` [Compound 311, N-(4-{[(5Z)-5-({1-[2,4-Bis(trifluoromethyl)benzyl]-1H-indazol-5-yl}methylidene)-2,4-dioxo-1,3-thiazolidin-3-yl]methyl}tetrahydro-2H-pyran-4-yl) cyclopropanecarboxamide], the EC50 is 133 nM.

In the case of `COC(=O)C(C1CCOCC1)N1C(=O)S/C(=C\c2ccc3c(cnn3Cc3ccc(Cl)cc3C(F)(F)F)c2)C1=O` (centres unmarked) [Compound 209, Methyl [(5Z)-5-({1-[4-chloro-2-(trifluoromethyl)benzyl]-1H-indazol-5-yl}methylidene)-2,4-dioxo-1,3-thiazolidin-3-yl](tetrahydro-2H-pyran-4-yl)acetate], a half-maximal response (EC50) required 87 nM. This EC50 lies about 1.5-fold lower than the previous one.

As for `O=C(O)CN1C(=O)S/C(=C\c2ccc3c(cnn3[C@H]3CCc4cc(Cl)ccc43)c2)C1=O` [Compound 173, [(5Z)-5-({1-[(1S)-5-Chloro-2,3-dihydro-1H-inden-1-yl]-1H-indazol-5-yl}methylidene)-2,4-dioxo-1,3-thiazolidin-3-yl]acetic acid], it took 70 nM to reach a half-maximal effect (EC50). This EC50 and that of the compound before are within 1.5-fold of each other.

Regarding `O=C(O)C(C1CCNCC1)N1C(=O)S/C(=C\c2ccc3c(cnn3Cc3ccc(Cl)cc3C(F)(F)F)c2)C1=O` (centres unmarked) [Compound 224, [(5Z)-5-({1-[4-Chloro-2-(trifluoromethyl)benzyl]-1H-indazol-5-yl}methylidene)-2,4-dioxo-1,3-thiazolidin-3-yl](piperidin-4-yl)acetic acid], the midpoint of the response, the EC50, lay at 22 nM.

`N[C@H]1CC[C@H](CN2C(=O)S/C(=C\c3ccc4c(cnn4Cc4ccc(Cl)cc4C(F)(F)F)c3)C2=O)CC1` [Compound 284, (5Z)-3-[(trans-4-Aminocyclohexyl)methyl]-5-({1-[4-chloro-2-(trifluoromethyl)benzyl]-1H-indazol-5-yl}methylidene)-1,3-thiazolidine-2,4-dione] registered a concentration for a half-maximal effect (EC50) of 129 nM.

`Nc1nc(CN2C(=O)S/C(=C\c3ccc4c(cnn4Cc4ccc(Cl)cc4C(F)(F)F)c3)C2=O)c[nH]1` [Compound 231, (5Z)-3-[(2-Amino-1H-imidazol-4-yl)methyl]-5-({1-[4-chloro-2-(trifluoromethyl)benzyl]-1H-indazol-5-yl}methylidene)-1,3-thiazolidine-2,4-dione] registered an EC50 of 46 nM.

For the compound `NC1(CN2C(=O)S/C(=C\c3ccc4c(cnn4Cc4ccc(Cl)cc4C(F)(F)F)c3)C2=O)CCOCC1` [Compound 308, (5Z)-3-[(4-Aminotetrahydro-2H-pyran-4-yl)methyl]-5-({1-[4-chloro-2-(trifluoromethyl)benzyl]-1H-indazol-5-yl}methylidene)-1,3-thiazolidine-2,4-dione], the EC50 amounted to 5 nM.

In turn, `O=C(O)C1CCC(N2C(=O)S/C(=C\c3ccc4c(c3)nnn4Cc3ccc(Cl)cc3C(F)(F)F)C2=O)CC1` (centres unmarked) [Compound 266, 4-[(5Z)-5-({1-[4-Chloro-2-(trifluoromethyl)benzyl]-1H-benzotriazol-5-yl}methylidene)-2,4-dioxo-1,3-thiazolidin-3-yl]cyclohexanecarboxylic acid] displayed a concentration giving a half-maximal response (EC50) of 29 nM.

Consider `O=C1S/C(=C\c2ccc3c(c2)nnn3Cc2ccc(Cl)cc2C(F)(F)F)C(=O)N1O` [Compound 290, (5Z)-5-({1-[4-Chloro-2-(trifluoromethyl)benzyl]-1H-benzotriazol-5-yl}methylidene)-3-hydroxy-1,3-thiazolidine-2,4-dione], for which a half-maximal effect (EC50) was put at 29 nM.
